Positions of bridges follow the written chain, without caps; N, C: chain ends. Non-standard residues stand in square brackets, D forms with d. Residues, ends and D or L forms follow the SMILES beside them. S5 = C=CCCC[C@](C)(N)C(=O)O
Experiments:
MjHKU4r-CoV-1 PsV = conditions: for IC50: 48 h
authentic MjHKU4r-CoV-1 [1] = conditions: 72 h
MjHKU4r-S = format: cell-based, MjHKU4r-CoV-1; conditions: for IC50: read-out: IC50 against MjHKU4r-S-mediated cell-cell fusion
MERS-CoV PsV = conditions: 48 h
[2] = test system: pseudotyped SARS-CoV-2 (Delta); conditions: pseudotyped (Delta, 48 h)
[3] = test system: pseudotyped SARS-CoV-2 (KP.2); conditions: pseudotyped (KP.2, 48 h)
HCoV-OC43 = test system: HCoV-OC43; design: species or system newborn ICR mice; conditions: mouse, in vivo
authentic MjHKU4r-CoV-1 [4] = format: cell-based

Q: What does the source list for CSCC[C@H](NC(=O)[C@H](C)NC(=O)CNC(=O)[C@H](CC(C)C)NC(=O)[C@H](C)NC(=O)[C@H](CCC(N)=O)NC(=O)[C@H](CC(N)=O)NC(=O)[C@H](Cc1ccccc1)NC(=O)[C@H](CCCCN)NC(=O)[C@H](CC(N)=O)NC(=O)[C@H](C)NC(C)=O)C(=O)N[C@@H](CCC(N)=O)C(=O)N[C@H](C(=O)NCC(=O)N[C@@H](Cc1ccccc1)C(=O)N[C@H](C(=O)N[C@H](C(=O)N[C@@H](CO)C(=O)N[C@@H](CC(N)=O)C(=O)N[C@@H](CC(C)C)C(=O)N[C@@H](C)C(=O)N[C@@H](Cc1ccccc1)C(=O)N[C@@H](CO)C(=O)N[C@@H](CCCCN)C(=O)N[C@H](C(=O)N[C@@H](CCC(N)=O)C(=O)N[C@@H](CC(=O)O)C(=O)N[C@@H](C)C(=O)N[C@H](C(=O)N[C@@H](CC(N)=O)C(=O)N[C@@H](C)C(=O)N[C@@H](CC(N)=O)C(=O)N[C@@H](C)C(=O)N[C@@H](CC(N)=O)C(=O)N[C@@H](C)C(=O)N[C@@H](CC(C)C)C(=O)N[C@@H](CO)C(=O)N[C@@H](CCCCN)C(=O)N[C@@H](CC(C)C)C(=O)N[C@@H](C)C(=O)N[C@@H](CO)C(=O)N[C@@H](CCC(=O)O)C(N)=O)C(C)C)C(C)C)[C@@H](C)O)[C@@H](C)O)[C@@H](C)O [MjHKU4r-HR1P]?
A: IC50 (MjHKU4r-CoV-1 PsV): > 10000 nM; IC50 (authentic MjHKU4r-CoV-1 [1]): > 5000 nM

Q: Which results are given for CC[C@H](C)[C@H](NC(=O)[C@H](C)NC(=O)[C@H](CCSC)NC(=O)[C@H](CCC(=O)O)NC(=O)[C@H](CC(=O)O)NC(=O)[C@H](CO)NC(=O)[C@H](CC(C)C)NC(=O)[C@H](CC(=O)O)NC(=O)[C@H](CC(C)C)NC(=O)[C@H](CC(C)C)NC(=O)[C@@H](NC(=O)[C@@H](NC(=O)[C@H](CC(N)=O)NC(=O)[C@@H](NC(=O)[C@H](CCCCN)NC(=O)[C@H](CO)NC(=O)[C@@H](NC(=O)[C@H](CCC(=O)O)NC(C)=O)[C@@H](C)CC)[C@@H](C)CC)C(C)C)[C@@H](C)O)C(=O)N[C@@H](CC(C)C)C(=O)N[C@@H](CC(C)C)C(=O)N[C@@H](CCC(=O)O)C(=O)N[C@@H](C)C(=O)N[C@H](C(=O)N[C@@H](CCCCN)C(=O)N[C@@H](CCC(N)=O)C(=O)N[C@@H](CC(C)C)C(=O)N[C@@H](CC(N)=O)C(=O)N[C@@H](CC(=O)O)C(=O)N[C@@H](CO)C(=O)N[C@@H](Cc1ccc(O)cc1)C(=O)N[C@H](C(=O)N[C@@H](CC(=O)O)C(=O)N[C@@H](CC(C)C)C(=O)N[C@@H](CCCCN)C(=O)N[C@@H](CCC(=O)O)C(=O)N[C@@H](CC(C)C)C(N)=O)[C@@H](C)CC)[C@@H](C)CC [MjHKU4r-HR2P9]?
A: IC50 (MjHKU4r-S): 10.3 nM; Improvement in inhibition of pseudotyped MjHKU4r-CoV-1 infection compared to original MjHKU4r-HR2P (MjHKU4r-CoV-1 PsV): 2.9 fold; IC50 (MjHKU4r-CoV-1 PsV): 26 nM; IC50 (MERS-CoV PsV): 114 nM; IC50 [2]: 408 nM; IC50 [3]: 460 nM; IC50 (authentic HCoV-OC43): 1020 nM

Q: How did the Survival rate (HCoV-OC43) turn out when CC[C@H](C)[C@H](NC(=O)[C@H](C)NC(=O)[C@H](CCSC)NC(=O)[C@H](CCC(=O)O)NC(=O)[C@H](CC(=O)O)NC(=O)[C@H](CO)NC(=O)[C@H](CC(C)C)NC(=O)[C@H](CC(=O)O)NC(=O)[C@H](CC(C)C)NC(=O)[C@H](CC(C)C)NC(=O)[C@@H](NC(=O)[C@@H](NC(=O)[C@H](CC(N)=O)NC(=O)[C@@H](NC(=O)[C@H](CCCCN)NC(=O)[C@H](CO)NC(=O)[C@@H](NC(=O)[C@H](CCC(=O)O)NC(C)=O)[C@@H](C)CC)[C@@H](C)CC)C(C)C)[C@@H](C)O)C(=O)N[C@@H](CC(C)C)C(=O)N[C@@H](CC(C)C)C(=O)N[C@@]1(C)CCCC=CCCC[C@@](C)(C(=O)N[C@@H](CC(C)C)C(=O)N[C@@H](CC(N)=O)C(=O)N[C@@H](CC(=O)O)C(=O)N[C@@H](CO)C(=O)N[C@@H](Cc2ccc(O)cc2)C(=O)N[C@H](C(=O)N[C@@H](CC(=O)O)C(=O)N[C@@H](CC(C)C)C(=O)N[C@@H](CCCCN)C(=O)N[C@@H](CCC(=O)O)C(=O)N[C@@H](CC(C)C)C(N)=O)[C@@H](C)CC)NC(=O)[C@H](CCCCN)NC(=O)[C@H]([C@@H](C)CC)NC(=O)[C@H](C)NC1=O [MjHKU4r-HR2P10] (Ac-EISKINVTLLDLSDEMAILL[S5]AIK[S5]LNDSYIDLKEL-NH2; staple 21-25) was run?
A: 66.7%

Q: And the IC50 (MERS-CoV PsV)?
A: 37.2 nM

Q: What about the IC50 [2] of the same molecule?
A: 115 nM

Q: What about the IC50 [3] of the same molecule?
A: 85.9 nM

Q: And the IC50 (authentic HCoV-OC43)?
A: 480 nM

Q: With CC[C@H](C)[C@H](NC(=O)[C@H](C)NC(=O)[C@H](CCSC)NC(=O)[C@H](CCC(=O)O)NC(=O)[C@H](CC(=O)O)NC(=O)[C@H](CO)NC(=O)[C@H](CC(C)C)NC(=O)[C@H](CC(=O)O)NC(=O)[C@H](CC(C)C)NC(=O)[C@H](CC(C)C)NC(=O)[C@@H](NC(=O)[C@@H](NC(=O)[C@H](CC(N)=O)NC(=O)[C@@H](NC(=O)[C@H](CCCCN)NC(=O)[C@H](CO)NC(=O)[C@@H](NC(=O)[C@H](CCC(=O)O)NC(C)=O)[C@@H](C)CC)[C@@H](C)CC)[C@@H](C)O)[C@@H](C)O)C(=O)N[C@@H](CC(C)C)C(=O)N[C@@H](CCC(N)=O)C(=O)N[C@@H](CCC(=O)O)C(=O)N[C@H](C(=O)N[C@H](C(=O)N[C@@H](CCCCN)C(=O)N[C@@H](CCC(N)=O)C(=O)N[C@@H](CC(C)C)C(=O)N[C@@H](CC(N)=O)C(=O)N[C@@H](CC(=O)O)C(=O)N[C@@H](CO)C(=O)N[C@@H](Cc1ccc(O)cc1)C(=O)N[C@H](C(=O)N[C@@H](CC(=O)O)C(=O)N[C@@H](CC(C)C)C(=O)N[C@@H](CCCCN)C(=O)N[C@@H](CCC(=O)O)C(=O)N[C@@H](CC(C)C)C(N)=O)[C@@H](C)CC)C(C)C)C(C)C [MjHKU4r-HR2P] as the molecule, how does the “Inhibition of MjHKU4r-S-mediated cell-cell fusion at fixed concentration” value (MjHKU4r-S) read?
A: completely inhibited

Q: What about the IC50 (MjHKU4r-S) of the same molecule?
A: 37 nM

Q: And the “Blockage of MjHKU4r-CoV-1 N protein expression (immunofluorescence)” value (authentic MjHKU4r-CoV-1 [4])?
A: near-complete blockage

Q: What about the IC50 (MjHKU4r-CoV-1 PsV) of the same molecule?
A: 62 nM

Q: What about the IC50 (authentic MjHKU4r-CoV-1 [1]) of the same molecule?
A: 26 nM

Source: PMC12432378 (Cell Reports Medicine, 2025)
